Where a name gives a salt, the structure may show the parent alone.
Key:
Format in all cases: in vivo, Vitis vinifera
[1] = test system: Crimson Seedless grape clusters; assay: Field study, Example 1: visual rating of red grape coloration, % of berries with marketable color; conditions: for activity relative to S-ABA for enhancing grape coloration: from % marketable color data, 40 ppm vs 400 ppm S-ABA
Procedure: (§1) A field study was conducted in California to compare the efficacy of S-ABA to 3′-methyl-(S)-ABA in promoting red grape coloration. S-ABA and 3′-methyl-(S)-ABA were formulated as aqueous solutions of the corresponding potassium salt to the desired concentrations with the final pHs being between 6.5 and 7.2. Individual Crimson Seedless grape clusters were selected and tagged, with 20 tagged clusters per treatment. The treatments were applied as cluster-directed sprays using a trigger sprayer at 15 to 20 mL per cluster to ensured good coverage of the grapes. Application of 15 to 20 milliliters per cluster simulates application of about 109 gallons per acre directed at the approximately 40 clusters per vine in a vineyard with 518 vines per acre. Based on these estimates, Applicant determined the approximate grams per acre. The equation is as follows: 20 ml/cluster×40 cluster/vine=800 ml/vine×518 vine/acre=(414,400 ml/acre)/(1000 ml/liter)=414 liters/acre. An estimation of grams per acre was made by multiplying the mg per cluster with 20,720 clusters/acre (40 clusters/vine×518 vines/acre=20,720 clusters/acre).
(§2) Periodically after the treatments, the grape clusters were evaluated for color development by visual ratings over a six-week period. The coloration was graded on a 1 to 8 grading scale, where a rating of 1 has very little or no red color and a rating of 8 has a deep or dark red color. The percentages of berries that reached marketable red coloration for each cluster were averaged and recorded for each treatment. Additionally, representative berries from each treatment group were harvested about four weeks after treatment and analyzed for anthocyanin content.

Crimson Seedless grapes = assay: Trial, Example 2: visual color rating of grape clusters on a 1 to 8 scale; parameters: key to Color Ratings: 1 = little/no red color, 8 = deep/dark red color; conditions: for Color Ratings: applied day 0 and day 11, 1 to 8 grading scale; for potency in promoting red color development compared with another compound: Crimson Seedless grapes; for red color development in comparison with the untreated control: six-week evaluation period
Procedure: Another trial was conducted in California on Crimson Seedless grapes to compare the efficacy of S-ABA, 3′-methyl-(S)-ABA and 3′-propargyl-(S)-ABA in promoting coloration. All three compounds were formulated as aqueous solutions of the corresponding potassium salt to the desired concentrations, with the final pHs being between 6.5 and 7.2. Individual Crimson Seedless grape clusters were selected and tagged, with 20 tagged clusters per treatment. The solutions were applied as cluster-directed sprays using a trigger sprayer at 15 to 20 milliliters per cluster which ensured good coverage of the grapes. The treatments were applied on day 0 and day 11 of the trial. Periodically during the trial, the grape clusters were evaluated for color development by visual ratings over a six-week period and the coloration was graded on a 1 to 8 grading scale, where a rating of 1 has very little or no red color and a rating of 8 has a deep or dark red color.

[2] = test system: Crimson Seedless grape clusters; assay: Field study, Example 1: anthocyanin content of berries harvested about four weeks after treatment; conditions: for Total Anthocyanin Content: berries harvested about four weeks after treatment
Procedure: as §1, §2

[3] = 4 ppm, 0.06-0.08 mg/cluster, 1.2-1.6 g/acre, 3 DAT
[4] = 4 ppm, 0.06-0.08 mg/cluster, 1.2-1.6 g/acre, 10 DAT
[5] = 4 ppm, 0.06-0.08 mg/cluster, 1.2-1.6 g/acre, 14 DAT
[6] = 4 ppm, 0.06-0.08 mg/cluster, 1.2-1.6 g/acre, 21 DAT
[7] = 4 ppm, 0.06-0.08 mg/cluster, 1.2-1.6 g/acre, 31 DAT
[8] = 4 ppm, 0.06-0.08 mg/cluster, 1.2-1.6 g/acre, 41 DAT
[9] = 40 ppm, 0.6-0.8 mg/cluster, 12-16 g/acre, 3 DAT
[10] = 40 ppm, 0.6-0.8 mg/cluster, 12-16 g/acre, 10 DAT
[11] = 40 ppm, 0.6-0.8 mg/cluster, 12-16 g/acre, 14 DAT
[12] = 40 ppm, 0.6-0.8 mg/cluster, 12-16 g/acre, 21 DAT
[13] = 40 ppm, 0.6-0.8 mg/cluster, 12-16 g/acre, 31 DAT
[14] = 40 ppm, 0.6-0.8 mg/cluster, 12-16 g/acre, 41 DAT (end of six-week evaluation)

In the case of `CC1=C(C)[C@](O)(/C=C/C(C)=C\C(=O)O)C(C)(C)CC1=O` [3′-methyl-(S)-ABA, K^+ salt, (2Z,4E)-5-((S)-1-hydroxy-2,3,6,6-tetramethyl-4-oxocyclohex-2-en-1-yl)-3-methylpenta-2,4-dienoic acid], the “coloration effect compared with 6 to 8 mg per cluster (400 ppm) of S-ABA” value ([1]; 0.6 to 0.8 mg per cluster (40 ppm, 15 to 20 mL)) is reported as “even more efficacious”, the “Coloring Ratings, % of the berries with marketable color” value (“Coloring Ratings, % of the berries” below) ([1]; 20 ppm, 0.3-0.4 mg/cluster, 6-8 grams/acre, 7 DAT) is reported as 34% and the “Coloring Ratings, % of the berries” value ([1]; 20 ppm, 0.3-0.4 mg/cluster, 6-8 grams/acre, 14 DAT) is reported as 67%. For the same molecule, the “Coloring Ratings, % of the berries” value ([1]; 20 ppm, 0.3-0.4 mg/cluster, 6-8 grams/acre, 27 DAT) was 79%, the “Coloring Ratings, % of the berries” value ([1]; 20 ppm, 0.3-0.4 mg/cluster, 6-8 grams/acre, 33 DAT) was 85% and the “Coloring Ratings, % of the berries” value ([1]; 20 ppm, 0.3-0.4 mg/cluster, 6-8 grams/acre, 43 DAT) was 89%. For the same molecule, the “Coloring Ratings, % of the berries” value ([1]; 40 ppm, 0.6-0.8 mg/cluster, 12-16 grams/acre, 7 DAT) was 52%, the “Coloring Ratings, % of the berries” value ([1]; 40 ppm, 0.6-0.8 mg/cluster, 12-16 grams/acre, 14 DAT) was 83% and the “Coloring Ratings, % of the berries” value ([1]; 40 ppm, 0.6-0.8 mg/cluster, 12-16 grams/acre, 27 DAT) was 92%. The “Coloring Ratings, % of the berries” value ([1]; 40 ppm, 0.6-0.8 mg/cluster, 12-16 grams/acre, 33 DAT) was 95%, the “Coloring Ratings, % of the berries” value ([1]; 40 ppm, 0.6-0.8 mg/cluster, 12-16 grams/acre, 43 DAT) was 97% and the “Coloring Ratings, % of the berries” value ([1]; 200 ppm, 3-4 mg/cluster, 60-80 grams/acre, 7 DAT) was 72%. The “Coloring Ratings, % of the berries” value ([1]; 200 ppm, 3-4 mg/cluster, 60-80 grams/acre, 14 DAT) was 89%, the “Coloring Ratings, % of the berries” value ([1]; 200 ppm, 3-4 mg/cluster, 60-80 grams/acre, 27 DAT) was 95% and the “Coloring Ratings, % of the berries” value ([1]; 200 ppm, 3-4 mg/cluster, 60-80 grams/acre, 33 DAT) was 95%. The “Coloring Ratings, % of the berries” value ([1]; 200 ppm, 3-4 mg/cluster, 60-80 grams/acre, 43 DAT) was 100%, the “Coloring Ratings, % of the berries” value ([1]; 400 ppm, 6-8 mg/cluster, 120-160 grams/acre, 7 DAT) was 76% and the “Coloring Ratings, % of the berries” value ([1]; 400 ppm, 6-8 mg/cluster, 120-160 grams/acre, 14 DAT) was 98%. For the same molecule, the “Coloring Ratings, % of the berries” value ([1]; 400 ppm, 6-8 mg/cluster, 120-160 grams/acre, 27 DAT) was 99%, the “Coloring Ratings, % of the berries” value ([1]; 400 ppm, 6-8 mg/cluster, 120-160 grams/acre, 33 DAT) was 99% and the “Coloring Ratings, % of the berries” value ([1]; 400 ppm, 6-8 mg/cluster, 120-160 grams/acre, 43 DAT) was 99%. For the same molecule, the marketable coloration ([1]; 400 ppm, 6 to 8 mg per cluster, 15 to 20 mL, in two weeks) was roughly 90%, the “activity relative to S-ABA for enhancing grape coloration” value [1] was “approximately 10 times” and the “activity relative to S-ABA for enhancing grape coloration” value ([1]; listed as 3′-methyl-(S)-abscisic acid) was “ten times as effective as S-ABA”. The “Color Ratings” value (Crimson Seedless grapes; [3]) was 1, the “Color Ratings” value (Crimson Seedless grapes; [4]) was 1.6 and the “Color Ratings” value (Crimson Seedless grapes; [5]) was 1.9. For the same molecule, the “Color Ratings” value (Crimson Seedless grapes; [6]) was 2.4, the “Color Ratings” value (Crimson Seedless grapes; [7]) was 2.7 and the “Color Ratings” value (Crimson Seedless grapes; [8]) was 2.8. The “Color Ratings” value (Crimson Seedless grapes; 20 ppm, 6-8 g/acre, 3 DAT) was 1.3, the “Color Ratings” value (Crimson Seedless grapes; 20 ppm, 6-8 g/acre, 10 DAT) was 1.7 and the “Color Ratings” value (Crimson Seedless grapes; 20 ppm, 6-8 g/acre, 14 DAT) was 2.3. The “Color Ratings” value (Crimson Seedless grapes; 20 ppm, 6-8 g/acre, 21 DAT) was 2.9, the “Color Ratings” value (Crimson Seedless grapes; 20 ppm, 6-8 g/acre, 31 DAT) was 3.5 and the “Color Ratings” value (Crimson Seedless grapes; 20 ppm, 6-8 g/acre, 41 DAT) was 3.5. The “Color Ratings” value (Crimson Seedless grapes; [9]) was 1.1, the “Color Ratings” value (Crimson Seedless grapes; [10]) was 1.3 and the “Color Ratings” value (Crimson Seedless grapes; [11]) was 2.7. For the same molecule, the “Color Ratings” value (Crimson Seedless grapes; [12]) was 3.9, the “Color Ratings” value (Crimson Seedless grapes; [13]) was 4.7 and the “Color Ratings” value (Crimson Seedless grapes; [14]) was 5.5. The “potency in promoting red color development compared with another compound” value (Crimson Seedless grapes) was “more effective than S-ABA”, the “red color development in comparison with the untreated control” value (Crimson Seedless grapes) was “dose-dependent accelerated red color development” and the “Total Anthocyanin Content” value ([2]; 0.3-0.4 mg/cluster (20 ppm, 15-20 mL)) was 68 mg/L. For the same molecule, the “Total Anthocyanin Content” value ([2]; 0.6-0.8 mg/cluster (40 ppm, 15-20 mL)) was 78 mg/L, the “Total Anthocyanin Content” value ([2]; 3-4 mg/cluster (200 ppm, 15-20 mL)) was 181 mg/L and the “Total Anthocyanin Content” value ([2]; 6-8 mg/cluster (400 ppm, 15-20 mL)) was 247 mg/L. The “activity relative to S-ABA in promoting Crimson Seedless grape coloration” value ([2]; from anthocyanin analysis of Table 2) was “approximately 10 times” and the “calculated relative potency versus S-ABA” value ([2]; rate of S-ABA needed to achieve the same effect) was 8.4 times.
With `C#CCC1=C(C)[C@](O)(/C=C/C(C)=C\C(=O)O)C(C)(C)CC1=O` [3′-propargyl-(S)-ABA, K^+ salt, (2Z,4E)-5-((S)-1-hydroxy-2,6,6-trimethyl-4-oxo-3-(prop-2-yn-1-yl)cyclohex-2-en-1-yl)-3-methylpenta-2,4-dienoic acid] the “Color Ratings” value (Crimson Seedless grapes; [3]) was 1.1, the “Color Ratings” value (Crimson Seedless grapes; [4]) was 1.3 and the “Color Ratings” value (Crimson Seedless grapes; [5]) was 1.5. For the same molecule, the “Color Ratings” value (Crimson Seedless grapes; [6]) was 1.9, the “Color Ratings” value (Crimson Seedless grapes; [7]) was 2.4 and the “Color Ratings” value (Crimson Seedless grapes; [8]) was 2.4. The “Color Ratings” value (Crimson Seedless grapes; 20 ppm, 6-8 g/acre, 3 DAT) was 1.1, the “Color Ratings” value (Crimson Seedless grapes; 20 ppm, 6-8 g/acre, 10 DAT) was 1.5 and the “Color Ratings” value (Crimson Seedless grapes; 20 ppm, 6-8 g/acre, 14 DAT) was 1.8. For the same molecule, the “Color Ratings” value (Crimson Seedless grapes; 20 ppm, 6-8 g/acre, 21 DAT) was 2.2, the “Color Ratings” value (Crimson Seedless grapes; 20 ppm, 6-8 g/acre, 31 DAT) was 2.9 and the “Color Ratings” value (Crimson Seedless grapes; 20 ppm, 6-8 g/acre, 41 DAT) was 3.1. The “Color Ratings” value (Crimson Seedless grapes; [9]) was 1.1, the “Color Ratings” value (Crimson Seedless grapes; [10]) was 1.5 and the “Color Ratings” value (Crimson Seedless grapes; [11]) was 1.8. For the same molecule, the “Color Ratings” value (Crimson Seedless grapes; [12]) was 2.6, the “Color Ratings” value (Crimson Seedless grapes; [13]) was 3.1 and the “Color Ratings” value (Crimson Seedless grapes; [14]) was 3.3. For the same molecule, the “potency in promoting red color development compared with another compound” value (Crimson Seedless grapes) was “less potent than 3′-methyl-(S)-ABA” and the “red color development in comparison with the untreated control” value (Crimson Seedless grapes) was “accelerated coloration”.
